Structures can show the parent of a compound that is named as a salt. Where two headings read alike, the source gives them in different places.
Columns and labels:
[1] = target: T1, GABA A receptor a1b3g2 (hα1) (Homo sapiens, UniProt P14867+P18507); assay: [3H]flumazenil competition binding, GABA A a1b3g2 receptors in HEK293 cells
T1 construct: expressed in transfected cells; host or cells: HEK293 (transient transfection), membranes
Method: (§1) Membrane Preparation and Binding Assay
(§2) The affinity of compounds at GABA A receptor subtypes was measured by competition for [3H]flumazenil (85 Ci/mmol; Roche) binding to HEK293 cells expressing rat (stably transfected) or human (transiently transfected) receptors of composition a1b3g2, a2b3g2, a3b3g2 and a5b3g2.
(§3) Cell pellets were suspended in Krebs-tris buffer (4.8 mM KCl, 1.2 mM CaCl2, 1.2 mM MgCl2, 120 mM NaCl, 15 mM Tris; pH 7.5; binding assay buffer), homogenized by polytron for ca. 20 sec on ice and centrifuged for 60 min at 4° C. (50000 g; Sorvall, rotor: SM24=20000 rpm). The cell pellets were resuspended in Krebs-tris buffer and homogenized by polytron for ca. 15 sec on ice. Protein was measured (Bradford method, Bio-Rad) and aliquots of 1 mL were prepared and stored at −80° C.
(§4) Assays were incubated to equilibrium for 1 hour at 4° C. and harvested onto GF/C uni-filters (Packard) by filtration using a Packard harvester and washing with ice-cold wash buffer (50 mM Tris; pH 7.5). After drying, filter-retained radioactivity was detected by liquid scintillation counting. Ki values were calculated using Excel-Fit (Microsoft) and are the means of two determinations.
(§5) The major important difference is change from SF9 to HEK293 cells (which are human transiently transfected).

[2] = target: T2, GABA A receptor a5b3g2 (hα5) (Homo sapiens, UniProt P18507+P31644); assay: [3H]flumazenil competition binding, GABA A a5b3g2 receptors in HEK293 cells
T2 construct: expressed in transfected cells; host or cells: HEK293 (transient transfection), membranes
Method: as §1, §2, §3, §4, §5

[3] = target: T3, GABA A receptor a2b3g2 (hα2) (Homo sapiens, UniProt P18507+P47869); assay: [3H]flumazenil competition binding, GABA A a2b3g2 receptors in HEK293 cells
T3 construct: expressed in transfected cells; host or cells: HEK293 (transient transfection), membranes
Method: as §1, §2, §3
(§6) Radioligand binding assays were carried out in a volume of […] (96-well plates) which contained […] of cell memebranes, [3H]flumazenil at a concentration of 1 nM for a1, a2, a3 subunits and 0.5 nM for a5 subunits and the test compound in the range of 10-10-3×10^-6 M. Nonspecific binding was defined by 10^-5 M diazepam and typically represented less than 5% of the total binding. Assays were incubated to equilibrium for 1 hour at 4° C. and harvested onto GF/C uni-filters (Packard) by filtration using a Packard harvester and washing with ice-cold wash buffer (50 mM Tris; pH 7.5). After drying, filter-retained radioactivity was detected by liquid scintillation counting. Ki values were calculated using Excel-Fit (Microsoft) and are the means of two determinations.
as §5

[4] = target: T4, GABA A receptor a3b3g2 (hα3) (Homo sapiens, UniProt P18507+P34903); assay: [3H]flumazenil competition binding, GABA A a3b3g2 receptors in HEK293 cells
T4 construct: expressed in transfected cells; host or cells: HEK293 (transient transfection), membranes
Method: as §1, §2, §3, §6, §5

[5] = [3H]flumazenil 0.5 nM, HEK293 membranes, human transiently transfected, mean of two determinations, read-out: Ki[nM] hα5
[6] = [3H]flumazenil 1 nM, HEK293 membranes, human transiently transfected, mean of two determinations, read-out: Ki[nM] hα2
[7] = [3H]flumazenil 1 nM, HEK293 membranes, human transiently transfected, mean of two determinations, read-out: Ki[nM] hα3
[8] = [3H]flumazenil 1 nM, HEK293 membranes, human transiently transfected, mean of two determinations, read-out: Ki[nM] hα1

| Compound | Ki [1] [nM] | Ki [2, 5] [nM] | Ki [3] [nM] | Ki [4] [nM] | Ki [3, 6] [nM] | Ki [4, 7] [nM] | Ki [2] [nM] | Ki [1, 8] [nM] |
| --- | --- | --- | --- | --- | --- | --- | --- | --- |
| CCCc1ncn2c1Cn1ncnc1-c1cc(Br)ccc1-2 [Example 42, 3-Bromo-10-propyl-9H-imidazo[1,5-a][1,2,4]triazolo[1,5-d][1,4]benzodiazepine] | 10.6 | 1.4 | – | – | – | – | – | – |
| CC(C)c1cccc(C#Cc2ncn3c2Cn2ncnc2-c2cc(F)ccc2-3)c1 [Example 36, 3-Fluoro-10-(3-isopropyl-phenylethynyl)-9H-imidazo[1,5-a][1,2,4]triazolo[1,5-d][1,4]benzodiazepine] | 4 | 1.5 | – | – | – | – | – | – |
| Clc1ccc2c(c1)-c1ncnn1Cc1c(C#Cc3ccccc3)ncn1-2 [Example 30, 3-Chloro-10-phenylethynyl-9H-imidazo[1,5-a][1,2,4]triazolo[1,5-d][1,4]benzodiazepine] | 13.3 | 1.2 | – | – | – | – | – | – |
| CCc1ncn2c1Cn1ncnc1-c1cc(Cl)ccc1-2 [Example 10, 3-Chloro-10-ethyl-9H-imidazo[1,5-a][1,2,4]triazolo[1,5-d][1,4]benzodiazepine] | 15.4 | 2.1 | 9.6 | 7 | – | – | – | – |
| C#Cc1ncn2c1Cn1ncnc1-c1cc(Cl)ccc1-2 [Example 26, 3-Chloro-10-ethynyl-9H-imidazo[1,5-a][1,2,4]triazolo[1,5-d][1,4]benzodiazepine] | 4.6 | 0.5 | 6.4 | 3.5 | – | – | – | – |
| CC(C)(O)C#Cc1ncn2c1Cn1ncnc1-c1cc(Cl)ccc1-2 [Example 28, 3-Chloro-10-(3-hydroxy-3-methyl-but-1-ynyl)-9H-imidazo[1,5-a][1,2,4]triazolo[1,5-d][1,4]benzodiazepine] | 91 | 3.6 | – | – | – | – | – | – |
| Clc1ccc2c(c1)-c1ncnn1Cc1c(CC3CC3)ncn1-2 [Example 14, 3-Chloro-10-cyclopropylmethyl-9H-imidazo[1,5-a][1,2,4]triazolo[1,5-d][1,4]benzodiazepine] | 4.9 | 1.7 | 10.2 | 6.1 | – | – | – | – |
| Cc1ncn2c1Cn1ncnc1-c1cc(Cl)ccc1-2 [Example 3, 3-Chloro-10-methyl-9H-imidazo[1,5-a][1,2,4]triazolo[1,5-d][1,4]benzodiazepine] | 18.5 | – | – | – | 219 | 265 | 3 | – |
| C=Cc1ncn2c1Cn1ncnc1-c1cc(F)ccc1-2 [Example 19, 3-Fluoro-10-vinyl-9H-imidazo[1,5-a][1,2,4]triazolo[1,5-d][1,4]benzodiazepine] | 7.8 | 11 | 5.9 | 2.3 | – | – | – | – |
| CCc1ncn2c1Cn1ncnc1-c1cc(F)ccc1-2 [Example 9, 10-Ethyl-3-fluoro-9H-imidazo[1,5-a][1,2,4]triazolo[1,5-d][1,4]benzodiazepine] | 7.9 | 0.5 | 1.9 | 1.3 | – | – | – | – |
| Fc1cccc(C#Cc2ncn3c2Cn2ncnc2-c2cc(F)ccc2-3)c1 [Example 31, 3-Fluoro-10-(3-fluoro-phenylethynyl)-9H-imidazo[1,5-a][1,2,4]triazolo[1,5-d][1,4]benzodiazepine] | 5.5 | 1.6 | 4.5 | 3.6 | – | – | – | – |
| FC(F)=Cc1ncn2c1Cn1ncnc1-c1ccccc1-2 [Example 40, 10-(2,2-Difluoro-vinyl)-9H-imidazo[1,5-a][1,2,4]triazolo[1,5-d][1,4]benzodiazepine] | 8.5 | 0.5 | 3.7 | 2.3 | – | – | – | – |
| CCCc1ncn2c1Cn1ncnc1-c1cc(Cl)ccc1-2 [Example 12, 3-Chloro-10-propyl-9H-imidazo[1,5-a][1,2,4]triazolo[1,5-d][1,4]benzodiazepine] | 4.2 | 1.6 | 7.9 | 5.6 | – | – | – | – |
| C=Cc1ncn2c1Cn1ncnc1-c1ccccc1-2 [Example 18, 10-Vinyl-9H-imidazo[1,5-a][1,2,4]triazolo[1,5-d][1,4]benzodiazepine] | 12.8 | 0.8 | 5.7 | 3.7 | – | – | – | – |
| Fc1ccc2c(c1)-c1ncnn1Cc1c(C#Cc3cccc(C(F)(F)F)c3)ncn1-2 [Example 33, 3-Fluoro-10-(3-trifluoromethyl-phenylethynyl)-9H-imidazo[1,5-a][1,2,4]triazolo[1,5-d][1,4]benzodiazepine] | 3.4 | 1.2 | – | – | – | – | – | – |
| CCc1ncn2c1Cn1ncnc1-c1cc(OC)ccc1-2 [Example 11, 10-Ethyl-3-methoxy-9H-imidazo[1,5-a][1,2,4]triazolo[1,5-d][1,4]benzodiazepine] | 26.7 | 3.8 | 84.6 | 39.1 | – | – | – | – |
| Cc1ncn2c1Cn1ncnc1-c1cc(I)ccc1-2 [Example 53, 3-Iodo-10-methyl-9H-imidazo[1,5-a][1,2,4]triazolo[1,5-d][1,4]benzodiazepine hydrochloride (1:1)] | – | – | – | – | 261 | 126 | 4.3 | 184 |
| Cc1ncn2c1Cn1ncnc1-c1ccccc1-2 [Example 1, 10-Methyl-9H-imidazo[1,5-a][1,2,4]triazolo[1,5-d][1,4]benzodiazepine] | 41.6 | 2.6 | 15.5 | 10.1 | – | – | – | – |
| Cc1ncn2c1Cn1ncnc1-c1cc(F)ccc1-2 [Example 2, 3-Fluoro-10-methyl-9H-imidazo[1,5-a][1,2,4]triazolo[1,5-d][1,4]benzodiazepine] | 18.2 | 3 | 9.1 | 10.8 | – | – | – | – |
| Cc1ncn2c1Cn1ncnc1-c1c(F)cccc1-2 [Example 57, 4-Fluoro-10-methyl-9H-imidazo[1,5-a][1,2,4]triazolo[1,5-d][1,4]benzodiazepine] | 4.7 | 1 | 12.8 | 6.3 | – | – | – | – |
| 3-Fluoro-10-(3-methoxy-phenylethynyl)-9H-imidazo[1,5-a][1,2,4]triazolo[1,5-d][1,4]benzodiazepine [Example 34] | – | 1.1 | – | – | – | – | – | 14.1 |
| C=Cc1ncn2c1Cn1ncnc1-c1cc(Cl)ccc1-2 [Example 20, 3-Chloro-10-vinyl-9H-imidazo[1,5-a][1,2,4]triazolo[1,5-d][1,4]benzodiazepine] | 35.8 | 2.2 | 33.6 | 20.8 | – | – | – | – |
| C/C=C/c1ncn2c1Cn1ncnc1-c1cc(Cl)ccc1-2 [Example 21, 3-Chloro-10-(E)-propenyl-9H-imidazo[1,5-a][1,2,4]triazolo[1,5-d][1,4]benzodiazepine] | 5.2 | 0.4 | 6.9 | 4.8 | – | – | – | – |
| Clc1ccc2c(c1)-c1ncnn1Cc1c(/C=C/C3CC3)ncn1-2 [Example 23, 3-Chloro-10-((E)-2-cyclopropyl-vinyl)-9H-imidazo[1,5-a][1,2,4]triazolo[1,5-d][1,4]benzodiazepine] | 26.9 | 3.7 | 41 | 32.5 | – | – | – | – |
| C#Cc1ncn2c1Cn1ncnc1-c1cc(Br)ccc1-2 [Example 27, 3-Bromo-10-ethynyl-9H-imidazo[1,5-a][1,2,4]triazolo[1,5-d][1,4]benzodiazepine] | 20.3 | 0.9 | 19 | 11.9 | – | – | – | – |
| FC(F)Cc1ncn2c1Cn1ncnc1-c1ccccc1-2 [Example 41, 10-(2,2-Difluoro-ethyl)-9H-imidazo[1,5-a][1,2,4]triazolo[1,5-d][1,4]benzodiazepine] | 13.5 | 1 | 14.4 | 7 | – | – | – | – |

— patent US7432256B2, “Substitued imidazo [1,5-A][1,2,4]triazolo[1,5-D][1,4]benzodiazepine derivatives” (Hoffman-La Roche Inc., priority 2004, dated 2008)
